Values quoted from earlier work in patent US20090155388A1, “WEIGHT PHYTO-NUTRACEUTICAL SYNERGISTIC COMPOSITION” (priority 2006, published 2009).

Tests used:
[1] = 10 studies
[2] = 36 obese patients, maintenance period
[3] = test system: FAS (fatty acid synthase)
[4] = test system: bacterial resistance mechanism (multidrug pump); settings: in vitro
[5] = test system: lipoprotein lipase (LPL); settings: vanadate-stimulated
[6] = third ventricle (i.c.v.) administration
[7] = test system: hypothalamic neurons
[8] = 89 mildly overweight women
[9] = in vivo
[10] = female mice

Q: For Chromium picolinate, which “effect on reducing body weight compared with placebo” value [1] is on record?
A: relatively small effect

Q: And the insulin sensitivity (37 patients, with sulfonylurea agents)?
A: significantly improves insulin sensitivity

Q: And the “body weight gain and visceral fat accumulation” value (compared with placebo)?
A: significantly attenuated body weight gain and visceral fat accumulation

Q: And the lean body mass [2]?
A: able to increase lean body mass

Q: With catechin gallate [(−)-CG] as the compound, how does the “inhibition of FAS” value [3] read?
A: very potent inhibitor of FAS

Q: For `COc1cc([C@H]2Oc3cc(-c4cc(=O)c5c(O)cc(O)cc5o4)cc(OC)c3O[C@@H]2CO)ccc1O` (racemic) [5′-methoxyhydnocarpin (5′-MHC), 5′-methoxyhydnocarpin], which “potentiation of activity of berberine alkaloids” value [4] is on record?
A: strongly potentiated

Q: With `C[C@@H]1O[C@@H](O[C@H]2C(=O)c3c(O)cc(O)cc3O[C@@H]2c2ccc(O)c(O)c2)[C@H](O)[C@H](O)[C@H]1O` [Astilbin, astilbin] as the compound, how does the “release of LPL activity” value [5] read?
A: enhanced the release of lipoprotein lipase (LPL) activity

Q: Which “reduction of subsequent 24-h food intake” value [6] does the source give for `C/C=C(\C)C(=O)O[C@@H]1C[C@H]2[C@@H](CC=C3C[C@@H](O[C@H]4C[C@H](OC)[C@H](O[C@H]5C[C@H](OC)[C@H](O[C@@H]6O[C@H](C)[C@@H](O)[C@H](OC)[C@H]6O)[C@@H](C)O5)[C@@H](C)O4)CC[C@@]32C)[C@@]2(O)CC[C@H](C(C)=O)[C@@]12C` [P57AS3] here?
A: 40-60%

Q: And the “increase of ATP content” value [7]?
A: 50-150%

Q: For `O=C(O)CC(O)(C(=O)O)C(O)C(=O)O` (single isomer, unassigned; (-)) [(−)-Hydroxycitric acid (HCA), (−)-Hydroxycitric acid], which “reduction of body weight” value [8] is on record?
A: significantly greater reduction of body weight

Q: And the “body weight, feed consumption, adverse effects” value [9]?
A: significant decrease in body weight and reduction in feed consumption without any adverse effects

Q: For `CNCCC(Oc1ccc(C(F)(F)F)cc1)c1ccccc1` (stereo not drawn) [fluoxetine], which “hyperphagic effect of 5-HT depletor, 5-HT1A agonist, 5-HT antagonist and glucose antimetabolite” value [10] is on record?
A: significantly antagonized
